From PubChem BioAssay (NCI)
Values joined by “and” are separate entries in the source; they are usually repeats but may differ in a detail not shown here. Identical values can stand only once.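 A five-concentration, 48-hour dose response in 96-well plates underlies each endpoint, interpolated linearly between surrounding concentrations. GI50 = concentration required for 50% inhibition of growth. TGI: total growth inhibition.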

Legend:
Assay in all cases: NCI tumour cell line growth inhibition, 48 h
DMS 114 small cell lung = tested on: DMS 114 small cell lung
HL-60(TB) leukemia = tested on: HL-60(TB) leukemia
HOP-62 NSCLC = tested on: HOP-62 NSCLC
K-562 leukemia = tested on: K-562 leukemia
KM12 colon = tested on: KM12 colon
M14 melanoma = tested on: M14 melanoma
MALME-3M melanoma = tested on: MALME-3M melanoma
SF-268 CNS = tested on: SF-268 CNS
UACC-62 melanoma = tested on: UACC-62 melanoma
UO-31 renal = tested on: UO-31 renal

SMILES	TGI (DMS 114 small cell lung)	TGI (HL-60(TB) leukemia)	TGI (HOP-62 NSCLC)	TGI (K-562 leukemia)	TGI (KM12 colon)	TGI (M14 melanoma)	TGI (MALME-3M melanoma)	TGI (SF-268 CNS)	TGI (UACC-62 melanoma)	TGI (UO-31 renal)	GI50 (DMS 114 small cell lung)	GI50 (HL-60(TB) leukemia)	GI50 (HOP-62 NSCLC)	GI50 (K-562 leukemia)	GI50 (KM12 colon)	GI50 (M14 melanoma)	GI50 (MALME-3M melanoma)	GI50 (SF-268 CNS)	GI50 (UO-31 renal)	GI50 (UACC-62 melanoma)
COc1cc(C(=O)C/C(CCC(=O)Nc2ccc(Cl)cc2Cl)=N/NC(=O)C(N)=O)ccc1O	> 100 µM	> 100 µM	> 100 µM	> 100 µM	> 100 µM	> 100 µM	> 100 µM	> 100 µM	> 100 µM	> 100 µM	–	–	–	–	–	–	–	–	–	–
COc1cc2c(c(OC)c1OC)-c1ccc(SC)c(=O)cc1[C@@H](NCc1cccc(C#N)c1)CC2	0.0347 µM and < 0.0075 µM	–	> 75 µM	18.2 µM	0.0509 µM and 0.0128 µM	–	> 75 µM	–	0.0637 µM	> 75 µM	< 0.0075 µM	< 0.0075 µM	< 0.0075 µM	< 0.0075 µM	< 0.0075 µM	< 0.0075 µM	< 0.0075 µM	< 0.0075 µM	< 0.0075 µM	–
NCCCC1NC(=O)/C(=C(O)/C=C/C2CCC[C@@H]2CC2SCCS2)C1=O (stereo not given in full)	> 100 µM	64.3 µM	> 100 µM	> 100 µM	> 100 µM	> 100 µM	> 100 µM	> 100 µM	> 100 µM	> 100 µM	–	–	–	–	–	–	–	–	–	–
Cc1ccc(C2(O)CC(c3ccc([N+](=O)[O-])o3)=NN2C(=O)COc2ccccc2Cl)cc1 (stereo not given)	80.7 µM	12.9 µM	83.5 µM	> 100 µM	> 100 µM	15.4 µM	40.3 µM	> 76 µM	24.5 µM	> 100 µM	–	–	–	–	–	–	–	–	–	–
O=C(CC(=O)Nc1ccccc1O)Nc1ccccc1O	12.6 µM	6.01 µM	> 100 µM	25.7 µM	> 100 µM	29.7 µM	37.7 µM	75.8 µM	10.9 µM	27 µM	–	–	–	–	–	–	–	–	–	–
CCOC(=O)C(Cc1ccccc1)NC(=O)OC(C)(C)C (stereo not given)	> 100 µM	> 100 µM	> 100 µM	> 100 µM	> 100 µM	> 100 µM	> 100 µM	> 100 µM	> 100 µM	> 100 µM	–	–	–	–	–	–	–	–	–	–
COc1ccc2nc(NC(=O)C(=O)C(C(=O)c3ccccc3-c3ccccc3)C3OC(=O)c4ccccc43)sc2c1 (stereo not given)	37.2 µM	72.5 µM	35.3 µM	> 100 µM	54.9 µM	41.5 µM	27.6 µM	63.2 µM	34.3 µM	47.4 µM	–	–	–	–	–	–	–	–	–	–
COc1cc(/C=C/c2ccc(OC(C)=O)cc2)cc(OC)c1OC	94.2 µM	52.6 µM	> 100 µM	> 100 µM	> 100 µM	> 100 µM	97.1 µM	> 100 µM	70.6 µM	56.1 µM	–	–	–	–	–	–	–	–	–	–
COc1cc([C@@H]2c3cc4c(cc3[C@@H](NCc3ccccc3)C3COC(=O)[C@@H]32)OCO4)cc(OC)c1O (stereo not given in full)	> 64.5 µM	10.1 µM	9.63 µM	> 79.1 µM	49.3 µM	36.6 µM	32.7 µM	61.5 µM	22.1 µM	17.6 µM	–	–	–	–	–	–	–	–	–	–
O=C(O)CCCCCO	> 100 µM	> 100 µM	> 100 µM	> 100 µM	> 100 µM	> 100 µM	> 100 µM	> 100 µM	> 100 µM	> 100 µM	–	–	–	–	–	–	–	–	–	–
Cc1ccc(NC(=O)CC/C(CC(=O)c2ccc(F)cc2)=N\NC(=O)C(=O)NN)cc1C	> 100 µM	> 100 µM	> 100 µM	> 100 µM	> 100 µM	> 100 µM	> 100 µM	> 100 µM	> 100 µM	> 100 µM	–	–	–	–	–	–	–	–	–	–
Cc1ccccc1NC(=O)C1C(=O)N(c2ccccc2C)C(=O)/C1=N\N (stereo not given)	> 100 µM	> 100 µM	> 100 µM	> 100 µM	> 100 µM	> 100 µM	> 100 µM	> 100 µM	> 100 µM	> 100 µM	–	–	–	–	–	–	–	–	–	–
Cc1ccc(S(=O)(=O)SCc2ccccc2CSS(=O)(=O)c2ccc(C)cc2)cc1	> 100 µM	34.7 µM	> 100 µM	47 µM	> 100 µM	47.3 µM	> 100 µM	> 100 µM	31 µM	> 100 µM	–	–	–	–	–	–	–	–	–	–
CCC[CH2][Ge]([CH2]CCC)([CH2]CCC)[O]C(=O)C(O)c1ccccc1 (stereo not given)	7.19 µM	4.3 µM	23.4 µM	19.9 µM	17.4 µM	12 µM	18 µM	> 65.1 µM	18.1 µM	15.8 µM	0.284 µM	–	9.67 µM	0.443 µM	2.96 µM	2.51 µM	1.45 µM	6.74 µM	0.885 µM	4.03 µM
Nc1ccc2c(c1)CC1c3ccccc3C(C2)c2ccccc21	> 100 µM	> 100 µM	> 100 µM	> 100 µM	> 100 µM	> 100 µM	> 100 µM	> 100 µM	> 100 µM	> 100 µM	–	–	–	–	–	–	–	–	–	–
C/C(=N\NC(=O)c1ccccc1O)c1cccc(/C(C)=N/NC(=O)c2ccccc2O)n1	36.9 µM	–	31.7 µM and 6.42 µM	> 100 µM	> 100 µM	> 100 µM	43.9 µM and > 100 µM	56.5 µM and > 100 µM	20.6 µM and > 100 µM	52.5 µM and > 57.4 µM	–	0.784 µM and 0.504 µM	0.467 µM	–	0.456 µM	–	0.522 µM	0.28 µM	–	0.614 µM
CC1=C(C(=O)CC(=O)C(=O)Nc2ccccc2)Sc2ccccc2N1	> 100 µM	> 100 µM	> 100 µM	> 100 µM	> 100 µM	> 100 µM	> 100 µM	> 100 µM	> 100 µM	> 100 µM	–	–	–	–	–	–	–	–	–	–
